Row | melting point [°C] | SMILES
1 | 116 to 119 | CC(C)(C)OC(=O)N[C@H](Cc1ccc(Cl)c(Cl)c1)C(=O)N1CCC[C@H]1C(=O)NC1CCc2n[nH]cc2C1 (stereo partly drawn) [Example 16, tert-Butyl (1R)-1-(3,4dichlorobenzyl)-2-oxo-2-{(2S)-2-[(4,5,6,7-tetrahydro-2H-indazol-5-ylamino)carbonyl]pyrrolidinyl}ethylcarbamate]
2 | 128 to 131 | CC(C)(C)OC(=O)N[C@@H](C(=O)N1CCC[C@H]1C(=O)NC1CCc2nc(N)ncc2C1)C(c1ccccc1)c1ccccc1 (stereo partly drawn) [Example 23, tert-Butyl (1R)-2-((2S)-2-{[(2-amino-5,6,7,8-tetrahydro-6-quinazolinyl)amino]carbonyl}pyrrolidinyl)-1-benzhydryl-2-oxoethylcarbamate]
3 | 122 to 125 | C[C@H](NC(=O)[C@@H](Cc1ccccc1)NS(=O)(=O)Cc1ccccc1)C(=O)NC1CCc2nc(N)sc2C1 (stereo partly drawn) [Example 32, (2R)-N-{(1S)-2-[(2-Amino-4,5,6,7-tetrahydro-1,3-benzothiazol-6-yl)amino]-1-methyl-2-oxoethyl}-2-[(benzylsulfonyl)amino]-3-phenylpropanamide]
4 | > 250 | Nc1ncnc2ccc(NC(=O)[C@@H]3CCCN3C(=O)CNC(c3ccccc3)(c3ccccc3)c3ccccc3)cc12 [Example 42, (2S)-N-(4-amino-6-quinazolinyl)-1-{2-[(triphenylmethyl)amino]acetyl}-2-pyrrolidinecarboxamide]
5 | 199 to 202 | Cl.Cl.N[C@H](Cc1ccc(Cl)c(Cl)c1)C(=O)N1CCC[C@H]1C(=O)NC1CCc2n[nH]cc2C1 (stereo partly drawn)
6 | 113 to 116 | CC(C)(C)OC(=O)N[C@@H](C(=O)N1CCC[C@H]1C(=O)NCC1CCc2n[nH]cc2C1)C(c1ccccc1)c1ccccc1 (stereo partly drawn) [Example 64, tert-Butyl (1R)-1-benzhydryl-2-oxo-2-((2S)-2-{[(4,5,6,7-tetrahydro-2H-indazol-5-ylmethyl)amino]carbonyl}pyrrolidinyl)ethylcarbamate]
7 | 127 to 130 | CC(C)(C)OC(=O)N[C@H](C(=O)N1CCC[C@H]1C(=O)NC1CCc2nc(N)ncc2C1)C(c1ccccc1)c1ccccc1 (stereo partly drawn) [Example 13, tert-Butyl (1S)-2-((2S)-2-{[(2-amino-5,6,7,8-tetrahydro-6-quinazolinyl)amino]carbonyl}pyrrolidinyl)-1-benzhydryl-2-oxoethylcarbamate]
8 | 106 to 109 | O=C(NC1CCc2c[nH]cc2C1)[C@@H]1CCCN1C(=O)[C@@H](CC1CCCCC1)NS(=O)(=O)Cc1ccccc1 (stereo partly drawn) [Example 63, (2S)-1-{(2R)-2-[(Benzylsulfonyl)amino]-3-cyclohexylpropanoyl}-N-(4,5,6,7-tetrahydro-2H-isoindol-5-yl)-2-pyrrolidinecarboxamide]
9 | 127 to 130 | Nc1nc2ccc(NC(=O)CNC(=O)[C@@H](Cc3ccccc3)NS(=O)(=O)Cc3ccccc3)cc2s1 [Example 39, (2R)-N-{2-[(2-Amino-1,3-benzothiazol-6-yl)amino]-2-oxoethyl}-2-[(benzylsulfonyl)amino]-3-phenylpropanamide]
10 | 110 to 113 | CC(C)(C)OC(=O)N[C@H](Cc1ccccc1)C(=O)N1CCC[C@H]1C(=O)NC1CCc2nc(N)ncc2C1 (stereo partly drawn) [Example 7]
11 | 118 to 121 | Nc1ncc2c(n1)CCC(CNC(=O)[C@@H]1CCCN1C(=O)[C@@H](Cc1ccccc1)NS(=O)(=O)Cc1ccccc1)C2 (stereo partly drawn) [Example 12, (2S)-N-[(2-Amino-5,6,7,8-tetrahydro-6-quinazolinyl)methyl]-1-{(2R)-2-[(benzylsulfonyl)amino]-3-phenylpropanoyl}-2-pyrrolidinecarboxamide]
12 | 130 to 133 | Nc1nc2ccc(NC(=O)[C@@H]3CCCN3C(=O)[C@@H](Cc3ccccc3)NS(=O)(=O)Cc3ccccc3)cc2s1 [Example 38, (2S)-N-(2-Amino-1,3-benzothiazol-6-yl)-1-{(2R)-2-[(benzylsulfonyl)amino]-3-phenylpropanoyl}-2-pyrrolidinecarboxamide]
13 | 127 to 130 | Nc1nc2c(s1)CC(NC(=O)[C@@H]1CCCN1C(=O)[C@@H](CC1CCCCC1)NS(=O)(=O)Cc1ccccc1)CC2 (stereo partly drawn) [Example 28, (2S)-N-(2-Amino-4,5,6,7-tetrahydro-1,3-benzothiazol-6-yl)-1-{(2R)-2-[(benzylsulfonyl)amino]-3-cyclohexylpropanoyl}-2-pyrrolidinecarboxamide]
14 | 201 to 204 | Cl.Cl.Nc1ncc2c(n1)CCC(NC(=O)[C@@H]1CCCN1C(=O)[C@H](N)Cc1ccc(Cl)c(Cl)c1)C2 (stereo partly drawn)
15 | 117 to 120 | Nc1ncc2c(n1)CCC(NC(=O)[C@@H]1CCCN1C(=O)[C@@H](Cc1ccccc1)NS(=O)(=O)Cc1ccccc1)C2 (stereo partly drawn) [Example 6, (2S)-N-(2-Amino-5,6,7,8-tetrahydro-6-quinazolinyl)-1-{(2R)-2-[(benzylsulfonyl)amino]-3-phenylpropanoyl}-2-pyrrolidinecarboxamide]
16 | 110 to 113 | CC(C)(C)OC(=O)N[C@H](Cc1ccc(Cl)c(Cl)c1)C(=O)N1CCC[C@H]1C(=O)NCC1CCc2nc(N)ncc2C1 (stereo partly drawn) [Example 61, tert-Butyl (1R)-2-[(2S)-2-({[(2-amino-5,6,7,8-tetrahydro-6-quinazolinyl)methyl]amino}carbonyl)pyrrolidinyl]1-(3,4dichlorobenzyl)-2-oxoethylcarbamate]
17 | 205 to 208 | Cl.Cl.Nc1ncc2c(n1)CCC(NC(=O)[C@@H]1CCCN1C(=O)[C@H](N)Cc1ccccc1)C2 (stereo partly drawn)
18 | 155 to 158 | Cl.Cl.Nc1nc2c(s1)CC(NC(=O)[C@@H]1CCCN1C(=O)[C@@H](N)C(c1ccccc1)c1ccccc1)CC2 (stereo partly drawn)

Row | melting point [°C] | SMILES
19 | 126 to 129 | Nc1nc2c(s1)CC(NC(=O)[C@@H]1CCCN1C(=O)[C@@H](Cc1ccccc1)NS(=O)(=O)Cc1ccccc1)CC2 (stereo partly drawn) [Example 27, (2S)-N-(2-amino-4,5,6,7-tetrahydro-1,3-benzothiazol-6-yl)-1-{(2R)-2-[(benzylsulfonyl)amino]-3-phenylpropanoyl}-2-pyrrolidinecarboxamide]
20 | 114 to 116 | O=C(NC1CCc2n[nH]cc2C1)[C@@H]1CCCN1C(=O)[C@@H](Cc1ccccc1)NS(=O)(=O)Cc1ccccc1 (stereo partly drawn) [Example 9, (2S)-1-{(2R)-2-[(Benzylsulfonyl)amino]-3-phenylpropanoyl}-N-(4,5,6,7-tetrahydro-2H-indazol-5-yl)-2-pyrrolidinecarboxamide]
21 | 166 to 168 | Cl.Cl.Nc1ncc2c(n1)CCC(CNC(=O)[C@@H]1CCCN1C(=O)[C@H](N)C(c1ccccc1)c1ccccc1)C2 (stereo partly drawn)
22 | 144 to 147 | Cl.Cl.O=C(O)CN[C@H](CC1CCCCC1)C(=O)N1CCC[C@H]1C(=O)NCC1CCc2n[nH]cc2C1 (stereo partly drawn)
23 | 212 to 215 | Cl.Cl.Nc1ncc2c(n1)CCC(NC(=O)[C@@H]1CCCN1C(=O)[C@@H](N)C(c1ccccc1)c1ccccc1)C2 (stereo partly drawn)
24 | 119 to 122 | CC(C)(C)OC(=O)N[C@@H](C(=O)N1CCC[C@H]1C(=O)NC1CCc2n[nH]cc2C1)C(c1ccccc1)c1ccccc1 (stereo partly drawn) [Example 55, tert-Butyl (1R)-1-benzhydryl-2-oxo-2-{(2S)-2-[(4,5,6,7-tetrahydro-2H-indazol-5-ylamino)carbonyl]pyrrolidinyl}ethylcarbamate]
25 | 190 to 193 | Cl.Cl.N[C@@H](C(=O)N1CCC[C@H]1C(=O)NC1CCc2n[nH]cc2C1)C(c1ccccc1)c1ccccc1 (stereo partly drawn)
26 | 166 to 169 | Cl.Cl.Nc1nc2c(s1)CC(NC(=O)[C@@H]1CCCN1C(=O)[C@H](N)Cc1ccc(Cl)c(Cl)c1)CC2 (stereo partly drawn)
27 | 199 to 202 | Cl.Cl.Nc1ncc2c(n1)CCC(NC(=O)[C@@H]1CCCN1C(=O)[C@H](N)C(c1ccccc1)c1ccccc1)C2 (stereo partly drawn)
28 | 114 to 117 | Nc1ncc2c(n1)CCC(NC(=O)[C@@H]1CCCN1C(=O)[C@@H](CC1CCCCC1)NS(=O)(=O)Cc1ccccc1)C2 (stereo partly drawn) [Example 21, (2S)-N-(2-Amino-5,6,7,8-tetrahydro-6-quinazolinyl)-1-{(2R)-2-[(benzylsulfonyl)amino]-3-cyclohexylpropanoyl}-2-pyrrolidinecarboxamide]
29 | 169 to 172 | Cl.Cl.Nc1ncc2c(n1)CCC(CNC(=O)[C@@H]1CCCN1C(=O)[C@H](N)Cc1ccc(Cl)c(Cl)c1)C2 (stereo partly drawn)
30 | 203 to 205 | Nc1nc2c(s1)CC(CNC(=O)[C@@H]1CCCN1C(=O)[C@@H](CC1CCCCC1)NS(=O)(=O)Cc1ccccc1)CC2 (stereo partly drawn) [Example 69, (2S)-N-[(2-Amino-4,5,6,7-tetrahydro-1,3-benzothiazol-6-yl)methyl]-1-{(2R)-2-[(benzylsulfonyl)amino]-3-cyclohexylpropanoyl}-2-pyrrolidinecarboxamide]
31 | 116 to 119 | CC(C)(C)OC(=O)N[C@H](Cc1ccc(Cl)c(Cl)c1)C(=O)N1CCC[C@H]1C(=O)NC1CCc2nc(N)sc2C1 (stereo partly drawn) [Example 34, tert-Butyl (1R)-2-((2S)-2-{[(2-amino-4,5,6,7-tetrahydro-1,3-benzothiazol-6-yl)amino]carbonyl}pyrrolidinyl)-1-(3,4-dichlorobenzyl)-2-oxoethylcarbamate]
32 | 225 to 228 | Cl.Cl.Nc1nc2c(s1)CC(NC(=O)[C@@H]1CCCN1C(=O)[C@H](N)Cc1ccccc1)CC2 (stereo partly drawn)
33 | 106 to 109 | O=C(NC1CCc2n[nH]cc2C1)[C@@H]1CCCN1C(=O)[C@@H](CC1CCCCC1)NS(=O)(=O)Cc1ccccc1 (stereo partly drawn) [Example 22, (2S)-1-{(2R)-2-[(Benzylsulfonyl)amino]-3-cyclohexylpropanoyl}-N-(4,5,6,7-tetrahydro-2H-indazol-5-yl)-2-pyrrolidinecarboxamide]
34 | 108 to 110 | CC(C)(C)OC(=O)N[C@H](Cc1ccccc1)C(=O)N1CCC[C@H]1C(=O)NC1CCc2n[nH]cc2C1 (stereo partly drawn) [Example 10, tert-Butyl (1R)-1-benzyl-2-oxo-2-{(2S)-2-[(4,5,6,7-tetrahydro-2H-indazol-5-ylamino)carbonyl]pyrrolidinyl}ethylcarbamate]
35 | 145 to 148 | Cl.N[C@H](Cc1ccc(Cl)c(Cl)c1)C(=O)N1CCC[C@H]1C(=O)NCC1CCc2n[nH]cc2C1 (stereo partly drawn)

Row | SMILES | melting point [°C]
36 | CC(C)(C)OC(=O)CN(C(=O)OC(C)(C)C)[C@H](CC1CCCCC1)C(=O)N1CCC[C@H]1C(=O)NC1CCc2nc(N)sc2C1 (stereo partly drawn) [Example 70, tert-Butyl 2-[[(1R)-2-((2S)-2-{[(2-amino-4,5,6,7-tetrahydro-1,3-benzothiazol-6-yl)amino]carbonyl}pyrrolidinyl)-1-(cyclohexylmethyl)-2-oxoethyl](tert-butoxycarbonyl)amino]acetate] | 95 to 101
